ChEMBL document CHEMBL3046429, “Synthesis, molecular modeling study, preliminary antibacterial, and antitumor evaluation of N-substituted naphthalimides and their structural analogues” (2013)
≈ marks a conversion by molar mass, not a printed value.

Experiments:
Assay type in all cases: functional
MCF7 = test: Growth inhibition of Homo sapiens (human) MCF7 cells at 10 uM after 48 hr by coulter counter analysis; conditions: MCF7, 48 h, read-out: GI
SNB-75 = test: Growth inhibition of Homo sapiens (human) SNB75 cells at 10 uM after 48 hr by coulter counter analysis; conditions: SNB-75, 48 h, read-out: GI
UO-31 = test: Growth inhibition of Homo sapiens (human) UO31 cells at 10 uM after 48 hr by coulter counter analysis; conditions: UO-31, 48 h, read-out: GI
NCI-H522 = test: Growth inhibition of Homo sapiens (human) NCI-H522 cells at 10 uM after 48 hr by coulter counter analysis; conditions: NCI-H522, 48 h, read-out: GI
SN12C = test: Growth inhibition of Homo sapiens (human) SN12C cells at 10 uM after 48 hr by coulter counter analysis; conditions: read-out: GI
HOP-92 = test: Growth inhibition of Homo sapiens (human) HOP92 cells at 10 uM after 48 hr by coulter counter analysis; conditions: HOP-92, 48 h, read-out: GI
Pseudomonas aeruginosa = test: Antibacterial activity against Pseudomonas aeruginosa assessed as growth inhibition after 24 hr by two-fold serial dilution method
Escherichia coli = test: Antibacterial activity against Escherichia coli assessed as growth inhibition after 24 hr by two-fold serial dilution method; conditions: for MIC: Escherichia coli, 24 h
Bacillus subtilis = test: Antibacterial activity against Bacillus subtilis assessed as growth inhibition after 24 hr by two fold serial dilution method
Staphylococcus aureus = test: Antibacterial activity against Staphylococcus aureus assessed as growth inhibition after 24 hr by two fold serial dilution method; conditions: for MIC: Staphylococcus aureus, 24 h

| Structure (SMILES) | MIC (Pseudomonas aeruginosa) [µg/mL] | MIC (Escherichia coli) [µg/mL] | MIC (Bacillus subtilis) [µg/mL] | MIC (Staphylococcus aureus) [µg/mL] | inhibition of growth at 10 µM (MCF7) [%] | inhibition of growth at 10 µM (SNB-75) [%] | inhibition of growth at 10 µM (UO-31) [%] | inhibition of growth at 10 µM (NCI-H522) [%] | inhibition of growth at 10 µM (SN12C) [%] | inhibition of growth at 10 µM (HOP-92) [%] | -logMIC (Escherichia coli) | -logMIC (Staphylococcus aureus) |
| --- | --- | --- | --- | --- | --- | --- | --- | --- | --- | --- | --- | --- |
| COc1cc(-n2c(=O)c3ccccc3c3ccccc3c2=O)cc(OC)c1OC | > 100 | 2.5 (≈ 6.42 µM) | 2.5 (≈ 6.42 µM) | 2.5 (≈ 6.42 µM) |  |  |  |  |  |  | 5.19 | 5.19 |
| O=c1c2ccccc2c2ccccc2c(=O)n1CCc1ccccn1 | > 100 | > 100 | > 100 | > 100 | 28.3 | 13.1 | 32.5 | 11.4 | 8.53 | 13.5 | 3.53 | 3.53 |
| Cc1cc(Cl)c(-n2c(=O)c3ccccc3c3ccccc3c2=O)c(Cl)c1 | 10 (≈ 26.2 µM) | 2.6 (≈ 6.8 µM) | 19.2 (≈ 50.2 µM) | 19.5 (≈ 51 µM) | 1.96 | 10.1 | 34.7 | 1.31 | 14.8 | 1.58 | 5.17 | 4.29 |
| O=c1c2ccccc2c2ccccc2c(=O)n1-c1c(Cl)cc(Cl)cc1Cl | 10 (≈ 24.8 µM) | 2.4 (≈ 5.96 µM) | 18.5 (≈ 45.9 µM) | 19 (≈ 47.2 µM) | -1.42 | 45.6 | 10.8 | 4.08 | -1.37 | 33.6 | 5.22 | 4.33 |
| O=C1c2nccnc2C(=O)N1c1ccc([N+](=O)[O-])cc1 | > 100 | 10.5 (≈ 38.9 µM) | 8.5 (≈ 31.5 µM) | 8.9 (≈ 32.9 µM) |  |  |  |  |  |  | 4.41 | 4.48 |
| Cc1cc(Cl)c(N2C(=O)c3nccnc3C2=O)c(Cl)c1 | 20 (≈ 64.9 µM) | 6.9 (≈ 22.4 µM) | 20 (≈ 64.9 µM) | 20 (≈ 64.9 µM) |  |  |  |  |  |  | 4.65 | 4.19 |
| O=C1c2cccc3cccc(c23)C(=O)N1c1ccc([N+](=O)[O-])cc1 | > 100 | 4 (≈ 12.6 µM) | 2.9 (≈ 9.11 µM) | 2.9 (≈ 9.11 µM) |  |  |  |  |  |  | 4.9 | 5.04 |
| COc1cc(OC)c(N2C(=O)c3cccc4cccc(c34)C2=O)c(OC)c1 | > 100 | 2.5 (≈ 6.88 µM) | 2.2 (≈ 6.05 µM) | 2 (≈ 5.5 µM) | 6.42 | 13.2 | 21 | 13.6 | 19.3 | 30.2 | 5.16 | 5.26 |
| O=C1c2nccnc2C(=O)N1CCN1CCOCC1 | > 100 | > 100 | > 100 | > 100 |  |  |  |  |  |  | 3.42 | 3.42 |
| O=C(O)c1ccc(N2C(=O)c3nccnc3C2=O)cc1 | > 100 | 10.9 (≈ 40.5 µM) | 8 (≈ 29.7 µM) | 8.5 (≈ 31.6 µM) |  |  |  |  |  |  | 4.39 | 4.5 |
| CC1(C)S[C@@H]2[C@H](NC(=O)[C@H](N)c3ccccc3)C(=O)N2[C@H]1C(=O)O [AMPICILLIN] | 10 (≈ 28.6 µM) | 2.2 (≈ 6.3 µM) | 2.2 (≈ 6.3 µM) | 2.2 (≈ 6.3 µM) |  |  |  |  |  |  |  |  |

The next lines start with results.

| MIC (Pseudomonas aeruginosa) [µg/mL] | MIC (Escherichia coli) [µg/mL] | MIC (Bacillus subtilis) [µg/mL] | MIC (Staphylococcus aureus) [µg/mL] | Structure (SMILES) | inhibition of growth at 10 µM (MCF7) [%] | inhibition of growth at 10 µM (SNB-75) [%] | inhibition of growth at 10 µM (UO-31) [%] | inhibition of growth at 10 µM (NCI-H522) [%] | inhibition of growth at 10 µM (SN12C) [%] | inhibition of growth at 10 µM (HOP-92) [%] | -logMIC (Escherichia coli) | -logMIC (Staphylococcus aureus) |
| --- | --- | --- | --- | --- | --- | --- | --- | --- | --- | --- | --- | --- |
| > 100 | 4.2 (≈ 12.2 µM) | 2 (≈ 5.83 µM) | 2.2 (≈ 6.41 µM) | O=C(O)c1ccc(-n2c(=O)c3ccccc3c3ccccc3c2=O)cc1 | 10.1 | 11 | 15.4 | 7.66 | 6.3 | 10.1 | 4.91 | 5.19 |
| > 100 | 3.9 (≈ 12.3 µM) | 2 (≈ 6.3 µM) | 1.6 (≈ 5.04 µM) | O=C(O)c1ccc(N2C(=O)c3cccc4cccc(c34)C2=O)cc1 |  |  |  |  |  |  | 4.91 | 5.3 |
| > 100 | 9 (≈ 28.5 µM) | 9 (≈ 28.5 µM) | 8.7 (≈ 27.6 µM) | COc1cc(N2C(=O)c3nccnc3C2=O)cc(OC)c1OC | 4.31 | -2.75 | 12.5 | 4.82 | 5.86 | 10.2 | 4.54 | 4.56 |
| > 100 | 2.5 (≈ 6.88 µM) | 2.2 (≈ 6.05 µM) | 2 (≈ 5.5 µM) | COc1cc(N2C(=O)c3cccc4cccc(c34)C2=O)cc(OC)c1OC |  |  |  |  |  |  | 5.16 | 5.26 |
| > 100 | > 100 | > 100 | > 100 | O=c1c2ccccc2c2ccccc2c(=O)n1CCN1CCOCC1 |  |  |  |  |  |  | 3.52 | 3.52 |
| > 100 | 4 (≈ 10.3 µM) | 2.3 (≈ 5.91 µM) | 2.2 (≈ 5.65 µM) | O=c1c2ccccc2c2ccccc2c(=O)n1-c1ccc([N+](=O)[O-])cc1[N+](=O)[O-] | -0.39 | 28.6 | 18.1 | 5.5 | 1.4 | 26.4 | 4.99 | 5.25 |
| > 100 | 2.5 (≈ 6.42 µM) | 2.5 (≈ 6.42 µM) | 2.5 (≈ 6.42 µM) | COc1cc(OC)c(-n2c(=O)c3ccccc3c3ccccc3c2=O)c(OC)c1 |  |  |  |  |  |  | 5.19 | 5.19 |
| > 100 | 10.9 (≈ 34.6 µM) | 8 (≈ 25.4 µM) | 8.4 (≈ 26.6 µM) | O=C1c2nccnc2C(=O)N1c1ccc([N+](=O)[O-])cc1[N+](=O)[O-] | 3.56 | 11.4 | 15.3 | 3.89 | 6.83 | -28.1 | 4.46 | 4.57 |
| > 100 | 9 (≈ 28.5 µM) | 9 (≈ 28.5 µM) | 8.7 (≈ 27.6 µM) | COc1cc(OC)c(N2C(=O)c3nccnc3C2=O)c(OC)c1 |  |  |  |  |  |  | 4.54 | 4.56 |
| > 100 | > 100 | > 100 | > 100 | O=C1c2cccc3cccc(c23)C(=O)N1CCN1CCOCC1 |  |  |  |  |  |  | 3.49 | 3.49 |
| > 100 | > 100 | > 100 | > 100 | O=C1c2cccc3cccc(c23)C(=O)N1CCc1ccccn1 |  |  |  |  |  |  | 3.48 | 3.48 |
| > 100 | 4 (≈ 11 µM) | 2.2 (≈ 6.06 µM) | 1.8 (≈ 4.95 µM) | O=C1c2cccc3cccc(c23)C(=O)N1c1ccc([N+](=O)[O-])cc1[N+](=O)[O-] |  |  |  |  |  |  | 4.96 | 5.31 |
| 10 (≈ 28.1 µM) | 2.2 (≈ 6.18 µM) | 20 (≈ 56.1 µM) | 18.2 (≈ 51.1 µM) | Cc1cc(Cl)c(N2C(=O)c3cccc4cccc(c34)C2=O)c(Cl)c1 | -1.03 | 6.64 | 26.8 | 5.32 | 3.72 | -15.5 | 5.21 | 4.29 |
| 10 (≈ 26.6 µM) | 2 (≈ 5.31 µM) | 20 (≈ 53.1 µM) | 18 (≈ 47.8 µM) | O=C1c2cccc3cccc(c23)C(=O)N1c1c(Cl)cc(Cl)cc1Cl | 3.55 | 39.1 | 20.9 | 4.37 | 6.09 |  | 5.27 | 4.32 |
| > 100 | > 100 | > 100 | > 100 | O=C1c2nccnc2C(=O)N1CCc1ccccn1 | 2.87 | 11.8 | 20.9 | 3.84 |  | -3.5 | 3.41 | 3.41 |
